The text below walks through data of publication PMC9484059, “Integrated multi-omics analysis and microbial recombinant protein system reveal hydroxylation and glycosylation involving nevadensin biosynthesis in Lysionotus pauciflorus” (Microbial Cell Factories, 2022).

For this experiment, the system named is T1, LpUGT95.
T1 construct: cloned from cDNA into pMAL-c2x (MBP fusion vector), expressed in E. coli, purified recombinant
In words: UPLC product formation, Hyper […] fit. Format: biochemical, Lysionotus pauciflorus. The following applies: 2 mM UDP-glucose as sugar donor, 10 mM DTT, 50 mM Tris-HCl pH 7.4, 30 °C, 30 min.

What is called Km is the concentration of substrate that gives half-maximal velocity.

Turning to `COc1ccc(-c2cc(=O)c3c(O)c(OC)c(O)c(OC)c3o2)cc1` [nevadensin, 5,7-dihydroxy-6,8,4'-trimethoxyflavone], the Km came to 596 µM.
